In patent US20230201172A1, “METHODS OF TREATING CFTR RELATED DISEASES AND DISORDERS” (ARIEL PRECISION MEDICINE, INC., priority 2020, published 2023):
Read-outs that look alike come from different tables or passages of the source.

How the values were obtained:
F508del-CFTR = target: T1, F508del-CFTR (Homo sapiens, UniProt P13569, DEL508-508); assay: Ussing chamber electrophysiology, acute potentiation of F508del-CFTR current in corrected CF-hBE cells; type: cell-based; conditions: for Maximum efficacy (Emax), relative efficacy: normalized to response of 1 μM ivacaftor (=1.0), cells treated with the three correctors
T1 construct: endogenous in cells; host or cells: CF-hBE (primary human bronchial epithelial cells from CF donors)
Method: Methods: […] Electrophysiology assays were conducted in an Ussing chamber in which corrected cells were treated with ascending concentrations of […] (0.001-10 μM) or ivacaftor (0.0003-1.0 μM). […] FIG. 1 legend: Ussing assay dose-response curves for potentiation of F508del-CFTR current following acute addition of ivacaftor (0.0003-1.0 μM, black circles) and […] (0.001-10 μM, blue squares labeled FDL176). Cells were corrected with lumacaftor (left), tezacaftor (middle), or FDL169 (right), each at 3 μM. For each corrector treatment group, dose response data for ivacaftor and […] were normalized to the response following activation with 1 μM ivacaftor (with matched corrector). Error bars represent SEM. CF-hBE=cystic fibrosis primary human bronchial epithelial cells; CFTR=cystic fibrosis transmembrane conductance regulator; SEM=standard error of the mean.

G551D variant = G551D variant (Homo sapiens, UniProt P13569, G551D); assay: Potentiator EC50 for the G551D CFTR variant; type: cell-based
[1] = Total plasma Cmin at steady state, human dose; type: in vivo
[2] = NOAEL exposure in rats vs human dose
[3] = NOAEL exposure in dogs vs human dose
[4] = cystic fibrosis patients with comorbid pancreatic diseases (Carrion et al. 2018); cited from earlier work

T1 sequence (P13569 with tags, fused parts or gaps DEL508-508): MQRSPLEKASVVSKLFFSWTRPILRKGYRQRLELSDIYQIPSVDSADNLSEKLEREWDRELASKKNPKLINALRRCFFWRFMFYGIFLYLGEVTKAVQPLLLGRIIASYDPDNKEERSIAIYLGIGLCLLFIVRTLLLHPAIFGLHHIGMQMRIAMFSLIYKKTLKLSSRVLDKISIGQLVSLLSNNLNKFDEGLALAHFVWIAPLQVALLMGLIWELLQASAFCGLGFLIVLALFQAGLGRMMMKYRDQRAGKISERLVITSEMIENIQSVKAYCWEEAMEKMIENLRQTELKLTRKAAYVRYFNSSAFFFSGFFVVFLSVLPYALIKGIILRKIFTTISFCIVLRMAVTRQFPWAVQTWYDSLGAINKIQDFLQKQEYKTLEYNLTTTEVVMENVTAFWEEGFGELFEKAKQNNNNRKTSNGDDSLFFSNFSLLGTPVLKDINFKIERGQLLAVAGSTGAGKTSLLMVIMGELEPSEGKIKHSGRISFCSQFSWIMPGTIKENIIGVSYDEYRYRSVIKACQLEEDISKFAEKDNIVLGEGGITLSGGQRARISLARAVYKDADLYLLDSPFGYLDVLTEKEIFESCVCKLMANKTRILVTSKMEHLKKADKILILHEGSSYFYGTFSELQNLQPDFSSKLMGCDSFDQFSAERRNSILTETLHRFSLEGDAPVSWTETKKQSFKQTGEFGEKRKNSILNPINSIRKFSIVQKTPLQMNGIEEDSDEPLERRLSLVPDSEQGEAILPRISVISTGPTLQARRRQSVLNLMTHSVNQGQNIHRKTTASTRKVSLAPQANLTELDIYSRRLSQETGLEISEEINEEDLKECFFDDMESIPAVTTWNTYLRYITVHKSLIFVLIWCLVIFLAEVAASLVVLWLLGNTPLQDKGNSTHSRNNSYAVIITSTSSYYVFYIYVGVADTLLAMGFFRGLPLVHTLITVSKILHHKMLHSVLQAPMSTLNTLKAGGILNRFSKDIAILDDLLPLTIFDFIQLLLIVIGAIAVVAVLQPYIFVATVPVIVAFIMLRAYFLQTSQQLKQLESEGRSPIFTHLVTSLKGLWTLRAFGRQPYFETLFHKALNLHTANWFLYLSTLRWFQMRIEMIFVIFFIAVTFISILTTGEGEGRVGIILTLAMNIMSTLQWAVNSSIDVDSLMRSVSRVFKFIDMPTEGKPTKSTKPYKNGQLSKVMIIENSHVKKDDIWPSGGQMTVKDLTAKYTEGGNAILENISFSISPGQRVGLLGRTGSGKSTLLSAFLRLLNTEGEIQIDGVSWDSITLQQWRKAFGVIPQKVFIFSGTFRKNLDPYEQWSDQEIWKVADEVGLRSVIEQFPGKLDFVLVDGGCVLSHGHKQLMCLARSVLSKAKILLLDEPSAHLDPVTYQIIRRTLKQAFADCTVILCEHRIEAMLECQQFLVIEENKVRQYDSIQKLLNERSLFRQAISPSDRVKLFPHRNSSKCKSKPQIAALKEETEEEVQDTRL
Chain of G551D variant (P13569 whole entry G551D): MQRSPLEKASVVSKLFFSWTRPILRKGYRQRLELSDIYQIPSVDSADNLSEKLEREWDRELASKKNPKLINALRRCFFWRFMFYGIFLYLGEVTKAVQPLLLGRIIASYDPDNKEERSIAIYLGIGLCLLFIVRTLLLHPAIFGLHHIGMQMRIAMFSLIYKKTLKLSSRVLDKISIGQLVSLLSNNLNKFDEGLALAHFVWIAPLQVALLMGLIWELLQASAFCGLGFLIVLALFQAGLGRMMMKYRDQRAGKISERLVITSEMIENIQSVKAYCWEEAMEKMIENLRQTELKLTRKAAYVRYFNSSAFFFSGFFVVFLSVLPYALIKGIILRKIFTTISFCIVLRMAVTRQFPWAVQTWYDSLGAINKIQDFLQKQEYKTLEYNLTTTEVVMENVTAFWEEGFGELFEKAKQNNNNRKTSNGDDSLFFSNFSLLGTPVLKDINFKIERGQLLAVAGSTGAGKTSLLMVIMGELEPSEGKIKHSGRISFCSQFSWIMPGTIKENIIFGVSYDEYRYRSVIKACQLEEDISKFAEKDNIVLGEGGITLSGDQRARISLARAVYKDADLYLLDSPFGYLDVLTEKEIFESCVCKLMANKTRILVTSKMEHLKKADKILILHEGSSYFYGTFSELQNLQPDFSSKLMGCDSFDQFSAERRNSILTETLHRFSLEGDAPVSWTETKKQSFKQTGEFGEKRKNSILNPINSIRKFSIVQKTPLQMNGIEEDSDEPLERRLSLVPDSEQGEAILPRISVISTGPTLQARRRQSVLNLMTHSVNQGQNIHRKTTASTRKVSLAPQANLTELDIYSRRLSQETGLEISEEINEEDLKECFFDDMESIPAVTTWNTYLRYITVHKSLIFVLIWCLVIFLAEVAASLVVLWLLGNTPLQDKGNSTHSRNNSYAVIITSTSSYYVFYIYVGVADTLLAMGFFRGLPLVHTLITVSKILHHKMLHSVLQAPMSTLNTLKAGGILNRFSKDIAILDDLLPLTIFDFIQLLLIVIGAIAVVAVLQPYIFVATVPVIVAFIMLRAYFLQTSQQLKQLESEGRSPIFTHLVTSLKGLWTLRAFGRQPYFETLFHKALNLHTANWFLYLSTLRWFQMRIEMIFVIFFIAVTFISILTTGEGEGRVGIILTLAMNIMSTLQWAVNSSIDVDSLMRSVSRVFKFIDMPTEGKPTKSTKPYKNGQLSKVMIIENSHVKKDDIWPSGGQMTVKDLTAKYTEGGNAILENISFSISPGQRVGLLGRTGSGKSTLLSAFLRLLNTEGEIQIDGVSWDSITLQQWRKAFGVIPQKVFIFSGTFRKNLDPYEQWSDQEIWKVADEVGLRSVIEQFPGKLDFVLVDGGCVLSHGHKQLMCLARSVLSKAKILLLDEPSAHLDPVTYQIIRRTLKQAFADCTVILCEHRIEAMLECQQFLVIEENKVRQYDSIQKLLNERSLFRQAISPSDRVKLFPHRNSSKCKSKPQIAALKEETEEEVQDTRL

EC50 (F508del-CFTR; corrector treated CF-hBE cells (lumacaftor, tezacaftor, FDL169), acute addition, read-out: EC50 range, potentiation of F508del-CFTR current) | Structure (SMILES) | EC50 (F508del-CFTR; CF-hBE cells corrected with FDL169 3 μM, acute addition (<1 hour), read-out: EC50, potentiation of F508del-CFTR current) | EC50 (F508del-CFTR; CF-hBE cells corrected with lumacaftor 3 μM, acute addition (<1 hour), read-out: EC50, potentiation of F508del-CFTR current) | EC50 (F508del-CFTR; CF-hBE cells corrected with tezacaftor 3 μM, acute addition (<1 hour), read-out: EC50, potentiation of F508del-CFTR current) | Maximum efficacy (Emax), relative efficacy (F508del-CFTR) | EC50 (G551D variant) | Total plasma Cmin at steady state ([1]; 30 mg dose) | Total plasma Cmin at steady state ([1]; 50 mg dose) | Safety margin of NOAEL exposure over a 50 mg human dose [2] | Safety margin of NOAEL exposure over a 50 mg human dose [3] | Recurrence rate of pancreatitis [4]
– | Cl.O=S(=O)(c1ccccc1)c1ccc2nc(NCc3ccc(-c4ccccn4)cc3)nn2c1 [X0176, 6-(phenylsulfonyl)-N-(4-(pyridin-2-yl)benzyl)-[1,2,4]triazolo[1,5-a]pyridin-2-amine hydrochloride] | 204 ± 24.4 nM | 133 ± 18.1 nM | 202 ± 44.6 nM | 1.0 | 2600 nM | 2180 nM | 3170 nM | 3.4 fold | 1.1 fold | –
3.6 to 9.1 nM | CC(C)(C)c1cc(C(C)(C)C)c(NC(=O)c2c[nH]c3ccccc3c2=O)cc1O [ivacaftor, reference compound] | – | – | – | 1.0 | – | – | – | – | – | decreased recurrence rate of pancreatitis
